From patent publication US20250304537A1 (Repare Therapeutics Inc., priority 2022, published 2025)

Target: recombinant human Myt1 (full length PKMYT1) (Homo sapiens (Human), UniProt Q99640)
Experiment: Recombinant human Myt1 kinase assay (ADP-Glo)
Format: biochemical
Conditions: 10 μM ATP
Experimental: Detection of Myt1 kinase activity utilized a recombinant human Myt1 kinase assay measuring the hydrolysis of ATP using a commercially available ADP-Glo Assay (ADP-Glo™ Kinase Assay from Promega, 10 000 assays, #V9102). Briefly, 5 μL recombinant human Myt1 (full length PKMYT1 recombinant human protein expressed in insect cells from Thermo Fisher #A33387; ˜80% purity) was prepared in reaction buffer (70 mM HEPES, 3 mM MgCl2, 3 mM MnCl2, 50 μg/ml PEG 20000, 3 μM Na-orthovanadate, 1.2 mM DTT) and added to 384 well white polystyrene, flat bottom well, non-treated, microplate (Corning #3572). After this, 5 μL of compounds (diluted in reaction buffer to 0.5% DMSO) was added to the microplate and the plate was spun briefly and incubated at 22° C. for 15 minutes. Ultra-Pure Adenosine Triphosphate (ATP) solution (ADP-Glo kit from Promega) was diluted in reaction buffer and 5 μL was added to the microplate, spun down briefly and incubated for 60 minutes at 30° C. The final Myt1 enzyme concentration was 18 nM and the final ATP concentration was 10 μM. After the 60-minute incubation, 15 μL of ADP-Glo reagent was added and the plate was spun briefly and sealed and incubated in the dark for 40 minutes at 22° C. Following this, 30 μL of kinase detection reagent was added per well and the plate was spun briefly, sealed and incubated for 45-60 minutes at 22° C. in the dark. Luminescence was read using the Envision (250 ms integration). The IC50 and the % max inhibition were calculated for each inhibitor compound tested.

Chain of recombinant human Myt1 (full length PKMYT1) (Q99640 whole entry): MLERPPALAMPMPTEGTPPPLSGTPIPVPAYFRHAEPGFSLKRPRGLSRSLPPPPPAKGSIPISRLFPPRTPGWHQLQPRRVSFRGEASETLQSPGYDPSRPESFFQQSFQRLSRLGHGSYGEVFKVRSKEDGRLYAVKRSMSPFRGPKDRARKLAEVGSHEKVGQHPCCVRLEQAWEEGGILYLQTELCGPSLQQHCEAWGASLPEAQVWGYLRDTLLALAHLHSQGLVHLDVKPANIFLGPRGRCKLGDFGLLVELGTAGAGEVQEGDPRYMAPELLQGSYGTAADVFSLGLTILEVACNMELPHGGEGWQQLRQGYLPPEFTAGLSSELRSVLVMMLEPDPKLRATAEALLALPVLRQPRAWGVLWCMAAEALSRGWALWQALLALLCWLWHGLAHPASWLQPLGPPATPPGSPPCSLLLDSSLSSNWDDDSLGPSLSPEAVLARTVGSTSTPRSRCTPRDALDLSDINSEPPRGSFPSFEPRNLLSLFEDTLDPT

| Structure (SMILES) | IC50 [nM] |
| --- | --- |
| Cc1ccnc(-c2cc(-c3c(C)ccc4[nH]ncc34)c(N)c(C(N)=O)n2)c1 [Compound 269] | 18 |
| Cc1ccc(O)cc1-c1nc(-c2ccc(N3CCOCC3)cc2)nc(C(N)=O)c1N [Compound 37] | 42 |
| Cc1ccc(O)cc1-c1c(Cl)c(C(N)=O)nc2ccccc12 [Compound 73, 3-chloro-4-(5-hydroxy-2-methylphenyl)quinoline-2-carboxamide] | > 50 |
| Cc1ccc2[nH]ncc2c1-c1nc(-c2ccc(N(C)C)cc2)nc(C(N)=O)c1N [Compound 145] | 57 |
| Cc1ccc2[nH]ncc2c1-c1nc(-c2cccc(CNc3ncccn3)c2)nc(C(N)=O)c1N [Compound 295] | 27 |
| Cc1ccc2[nH]ncc2c1-c1cc(-c2cccc(OCC(N)C(F)(F)F)n2)nc(C(N)=O)c1N (centres unmarked) [Compound 355] | 7 |
| Cc1ccc2[nH]ncc2c1-c1cc(-c2ccnc(OCc3cc4ccccc4o3)n2)nc(C(N)=O)c1N [Compound 196] | 754 |
| CO[C@@H](COc1nccc(-c2cc(-c3c(C)ccc4[nH]ncc34)c(N)c(C(N)=O)n2)n1)c1ccccc1 (atropisomer, axis not shown) [Compound 308] | 1740 |
| Cc1ccc(O)cc1-c1nc(-c2cc(F)cc(C(F)(F)F)c2)nc(C(N)=O)c1N [Compound 32] | 175 |
| Cc1ccc2[nH]ncc2c1-c1cc(-c2ccnc(OC3CN(C(=O)OC(C)(C)C)C3)n2)nc(C(N)=O)c1N [Compound 193] | 191 |
| Cc1ccc2[nH]ncc2c1-c1nc(-c2ccc3cn[nH]c3c2)nc(C(N)=O)c1N [Compound 129] | 23 |
| Cc1ccc2[nH]ncc2c1-c1nc(-c2ccccn2)nc(C(N)=O)c1N [Compound 117] | 90 |
| Cc1ccc2[nH]ncc2c1-c1cc(-c2ccccn2)cc(C(N)=O)c1N [Compound 137, 2-amino-3-(5-methyl-1H-indazol-4-yl)-5-(pyridin-2-yl)benzamide] | 46 |
| CNC(=O)c1cccc(-c2nc(C(N)=O)c(N)c(-c3c(C)ccc4[nH]ncc34)n2)c1 [Compound 285] | 20 |
| CCC(CC)COc1cccc(-c2cc(-c3c(C)ccc4[nH]ncc34)c(N)c(C(N)=O)n2)n1 [Compound 350] | 35 |
| Cc1ccc2[nH]ncc2c1-c1cc(-c2ccnc(OC[C@H]3CCC(=O)N3)n2)nc(C(N)=O)c1N [Compound 337] | 19 |
| CO[C@@H](COc1cccc(-c2nc(C(N)=O)c(N)c(-c3c(C)ccc4[nH]ncc34)n2)c1)c1ccccc1 [Compound 354] | 293 |
| Cc1ccc2[nH]ncc2c1-c1cc(-c2cccc(N3CCSCC3)n2)nc(C(N)=O)c1N [Compound 187] | 78 |
| Cc1ccc2[nH]ncc2c1-c1nc(-c2ccc(OC3CC3)cc2)nc(C(N)=O)c1N [Compound 127] | 120 |
| Cc1ccc2[nH]ncc2c1-c1nc(-c2ccc(C3(C#N)CC3)cc2)nc(C(N)=O)c1N [Compound 125] | 51 |
| COCC(=O)c1ccccc1-c1nc(C(N)=O)c(N)c(-c2c(C)ccc3[nH]ncc23)n1 [Compound 793] | 266 |
| Cc1ccc2[nH]ncc2c1-c1cc(-c2ccnc(OC3COC3)n2)nc(C(N)=O)c1N [Compound 176] | 770 |

| Structure (SMILES) | IC50 [nM] |
| --- | --- |
| Cc1ccc(O)cc1-c1cc(C(N)=O)nc2ccccc12 [Compound 74, 4-(5-hydroxy-2-methylphenyl)quinoline-2-carboxamide] | 2880 |
| COCCOc1cccc(-c2cc(-c3c(C)ccc4[nH]ncc34)c(N)c(C(N)=O)n2)n1 (atropisomer, axis not shown) [Compound 270] | 1160 |
| Cc1ccc2[nH]ncc2c1-c1cc(-c2ccnc(N[C@H]3c4ccccc4C[C@H]3O)n2)nc(C(N)=O)c1N (atropisomer, axis not shown) [Compound 376] | 15 |
| Cc1ccc2[nH]ncc2c1-c1cc(-c2cncs2)nc(C(N)=O)c1N [Compound 98] | 1940 |
| CO[C@@H](COc1cccc(-c2cc(-c3c(C)ccc4[nH]ncc34)c(N)c(C(N)=O)n2)n1)C1CC1 (atropisomer, axis not shown) [Compound 363] | 4 |
| Cc1ccc2[nH]ncc2c1-c1cc(-c2ccnc(N3CCC(O)CC3)n2)nc(C(N)=O)c1N [Compound 359] | 4 |
| Cc1nnc(COc2cccc(-c3cc(-c4c(C)ccc5[nH]ncc45)c(N)c(C(N)=O)n3)n2)o1 [Compound 318] | 21 |
| Cc1ccc2[nH]ncc2c1-c1nc(-c2cccc(C(=O)N3CCOCC3)c2)nc(C(N)=O)c1N [Compound 289] | 18 |
| Cc1ccc2[nH]ncc2c1-c1nc(-c2ccc(OC3CCOCC3)c(C#N)c2)nc(C(N)=O)c1N [Compound 118] | 309 |
| Cc1ccc2[nH]ncc2c1-c1cc(-c2ccc(=O)[nH]c2)nc(C(N)=O)c1N [Compound 178] | 68 |
| Cc1ccc2[nH]ncc2c1-c1nc(-c2cccc3nc[nH]c23)nc(C(N)=O)c1N [Compound 378] | 18 |
| COc1ccccc1COc1cccc(-c2cc(-c3c(C)ccc4[nH]ncc34)c(N)c(C(N)=O)n2)n1 [Compound 181] | 103 |
| Cc1ccc2[nH]ncc2c1-c1nc(-c2ccc(Oc3ccccc3)cc2)nc(C(N)=O)c1N [Compound 113] | 1110 |
| Cc1ccc2[nH]ncc2c1-c1nc(-c2cccc(C(=O)N(C)C)c2)nc(C(N)=O)c1N [Compound 284] | 38 |
| Cc1ccc2[nH]ncc2c1-c1nc(-c2cc(F)c(F)cc2NC2CN(C(=O)OC(C)(C)C)C2)nc(C(N)=O)c1N [Compound 479] | > 2000 |
| COCc1cccc(-c2nc(C(N)=O)c(N)c(-c3c(C)ccc4[nH]ncc34)n2)c1 [Compound 292] | 18 |
| Cc1ccc2[nH]ncc2c1-c1cc(-c2ccnc(OCCc3cnccn3)n2)nc(C(N)=O)c1N [Compound 310] | 14 |
| Cc1ccc(O)cc1-c1nc(-c2cccc(F)n2)nc(C(N)=O)c1N [Compound 5] | 25 |
| Cc1csc(-c2nc(C(N)=O)c(N)c(-c3c(C)ccc4[nH]ncc34)n2)c1 [Compound 148] | 69 |
| NC(=O)c1nc(-c2ccnnc2)cc(-c2c(Cl)ccc3[nH]ncc23)c1N [Compound 106] | 28 |
| CCC(C)COc1cccc(-c2cc(-c3c(C)ccc4[nH]ncc34)c(N)c(C(N)=O)n2)n1 (centres unmarked) [Compound 361] | 35 |
| Cc1ccc2[nH]ncc2c1-c1cc(-c2ccnc(OCc3noc(C4CCCC4)n3)n2)nc(C(N)=O)c1N [Compound 300] | 100 |

| Structure (SMILES) | IC50 [nM] |
| --- | --- |
| Cc1ccc2[nH]ncc2c1-c1nc(-c2cccc(Oc3ccc(F)cc3)c2)nc(C(N)=O)c1N [Compound 287] | 62 |
| Cc1ccc2[nH]ncc2c1-c1cc(-c2ccnc(N3CCCC(O)C3)n2)nc(C(N)=O)c1N (centres unmarked) [Compound 367] | 9 |
| Cc1cc(-c2nc(C(N)=O)c(N)c(-c3c(C)ccc4[nH]ncc34)n2)ccc1C#N [Compound 151] | 27 |
| CSC(C)COc1cccc(-c2cc(-c3c(C)ccc4[nH]ncc34)c(N)c(C(N)=O)n2)n1 (centres unmarked) [Compound 375] | 14 |
| COc1cccc(-c2nc(C(N)=O)c(N)c(-c3c(C)ccc4[nH]ncc34)n2)c1 [Compound 141] | 23 |
| CCS(=O)(=O)c1ccccc1-c1nc(C(N)=O)c(N)c(-c2c(C)ccc3[nH]ncc23)n1 [Compound 800] | 1010 |
| Cc1ccc2[nH]ncc2c1-c1cc(-c2ccc(OC3COC3)nc2)nc(C(N)=O)c1N [Compound 201] | 91 |
| Cc1ccc2[nH]ncc2c1-c1cc(-c2ccnc(O[C@H](C)c3ncccn3)n2)nc(C(N)=O)c1N (atropisomer, axis not shown) [Compound 358] | 69 |
| Cc1ccc(O)cc1-c1nc(-c2ccc(C#N)cc2)nc(C(N)=O)c1N [Compound 23] | 51 |
| Cc1ccc2[nH]ncc2c1-c1cc(-c2ccnc(OCCc3ccncc3)n2)nc(C(N)=O)c1N [Compound 263] | 19 |
| Cc1cccc(-c2nc(C(N)=O)c(N)c(-c3cc(O)ccc3C)n2)c1 [Compound 30] | 74 |
| Cc1ccc2[nH]ncc2c1-c1cc(-c2cccc(OCC(F)(F)F)c2)nc(C(N)=O)c1N [Compound 175] | 364 |
| Cc1ccc2[nH]ncc2c1-c1cc(-c2ccnc(N3Cc4ccccc4C[C@H]3CO)n2)nc(C(N)=O)c1N (atropisomer, axis not shown) [Compound 392] | 461 |
| CO[C@@H](COc1cccc(-c2cc(-c3c(C)ccc4[nH]ncc34)c(N)c(C(N)=O)n2)c1)c1ccccc1 [Compound 351] | 149 |
| COc1cnc(COc2cccc(-c3cc(-c4c(C)ccc5[nH]ncc45)c(N)c(C(N)=O)n3)n2)nc1 [Compound 255] | 72 |
| Cc1cnc(-c2nc(C(N)=O)c(N)c(-c3cc(O)ccc3C)n2)s1 [Compound 9] | 44 |
| Cc1ccc2[nH]ncc2c1-c1cc(-c2ccn(C)n2)nc(C(N)=O)c1N [Compound 171] | 96 |
| Cc1ccc2[nH]ncc2c1-c1cc(-c2ccnc(NCCCO)n2)nc(C(N)=O)c1N [Compound 343] | 20 |
| Cc1ccc(O)cc1-c1nc(-c2ccc(N)nc2)nc(C(N)=O)c1N [Compound 33] | 52 |
| Cc1ccc2[nH]ncc2c1-c1nc(-c2ccc(N3CCOCC3)c(C(F)(F)F)c2)nc(C(N)=O)c1N [Compound 157] | 904 |
| COCCOc1ccc(-c2nc(C(N)=O)c(N)c(-c3c(C)ccc4[nH]ncc34)n2)cc1 [Compound 124] | 25 |
